Holding throughout (assay type): in vivo
One test has as its system Alternaria solani. The test is described as follows: Alternaria solani (early blight) on potato, field trial, in-furrow spray at planting. Particulars: 250 g AI/ha, 89 days after planting. As to the method:
Alternaria solani on Potato: A potato field trial was carried out in Tompkins, New York, USA in 2018 to evaluate the efficacy of different compounds against early blight disease caused by Alternaria solani. The potato tubers were applied in-furrow at planting by using boom sprayer with a flat fan nozzle. The disease occurred beginning of August and an assessment on disease severity and was done Sep. 5, 2018. [table] [table] [table] [table] [table] [table] Assessments: Pest Severity, 89 Days after Planting

Test [1] deals with Fusarium oxysporum. The test can be described thus: Fusarium oxysporum on okra, field trial, drench at planting. Particulars: 375 g AI/ha, 60 days after planting. How it is done: Fusarium oxysporum on Okra:
An okra field trial was carried out in Kuppanur, Coimbatore, India in 2018 to evaluate the efficacy of different compounds against Fusarium oxysporum in okra.
The okra seeds were planted on Jun. 29, 2018 and directly afterwards drench applied with the compounds using a water volume of 50 ml per plant. The disease occurred two weeks after planting and an assessment on disease incidence and was done Aug. 28, 2018.
Assessments: Pest Incidence, 60 Days after Planting

Test [2] deals with Fusarium oxysporum. The test can be described thus: Fusarium oxysporum in tomato, greenhouse trial, drench at planting. Particulars: 100 g AI/ha, 132 days after planting. How it is done: Fusarium oxysporum in Tomato:
A tomato greenhouse trial was carried out in Sanlucar de Barrameda, Cadiz, Spain in 2017 to evaluate the efficacy of different compounds against Fusarium oxysporum in tomato.
Three week old tomato plants were transplanted on Apr. 7, 2017 and the afterwards drench applied with the compounds using a water volume of 100 ml per plant.
In order to increase the disease pressure 60 ml Fusarium oxysporum suspension with a concentration of 1′000′000 spores per milliliter of water was drenched directly in the planting hole were the plants will be transplanted the next day. The assessment on disease incidence and was done 132 days after transplanting on Aug. 17, 2017.
Assessments: Pest Incidence, 132 Days after Planting

Test [3] concerns Fusarium oxysporum. The test can be described thus: Fusarium oxysporum in melon, greenhouse trial, drench at planting. To be noted: 60 g AI/ha, 69 days after planting. How it is done: Fusarium oxysporum in Melon:
A melon greenhouse trial was carried out in El Ejido, Almeria, Spain in 2017 to evaluate the efficacy of different compounds against Fusarium oxysporum in melon.
The melon transplants were planted on May 5, 2017 and the afterwards drench applied with the compounds using a water volume of 100 ml per plant.
In order to increase the disease pressure each plot has been inoculated with 900 ml Fusarium oxysporum suspension with a concentration of 100′000 spores per millilitre of water three days before transplanting. The first disease symptoms were visible three weeks after transplanting and an assessment on disease severity and was done 69 days after transplanting on Jul. 13, 2017.
Assessments: Pest Severity, 69 Days after Planting

Regarding `O=C(NCCc1ncc(C(F)(F)F)cc1Cl)c1ccccc1C(F)(F)F` [COMPOUND 2 SC 500, Fluopyram], the “Pest severity (%)” value in the test with Alternaria solani (potato Red Norland, CHECK 97.25) is on record as 19.75, C %. Moreover, the Emax at 250 g/ha in the test with Alternaria solani (Alternaria solani, 2136 h, potato, read-out: % efficacy based on pest severity) was 79.7%. In addition, the “Pest incidence (%)” value in the test with Fusarium oxysporum [1] (okra Samrat, CHECK 84.20) is 20.50, C %. Moreover, the Emax at 375 g/ha with Fusarium oxysporum [1] (Fusarium oxysporum, in Abelmoschus esculentus, soil, 1440 h, okra, read-out: % efficacy based on pest incidence) amounted to 75.7%.

Regarding `CON(C(=O)c1cn(C)nc1C(F)F)C(C)Cc1c(Cl)cc(Cl)cc1Cl` (centres unmarked) [COMPOUND 2 SC 200, PYDIFLUMETOFEN], the “Pest incidence (%)” value with Fusarium oxysporum [2] (tomato Irati, CHECK 78.33) is given as 15.00, B %. The “% efficacy based on pest incidence” value in the test with Fusarium oxysporum [2] (tomato) was determined as 80.85%. Further, the “Pest severity (%)” value with Fusarium oxysporum [3] (melon Brisa, CHECK 82.41) is 16.67, B %. The “% efficacy based on pest severity” value with Fusarium oxysporum [3] (melon) is 79.77%.

(Values after US12317897B2, “Methods of controlling or preventing infestation of vegetable, tomato and potato plants by phytopathogenic microorganisms” (SYNGENTA CROP PROTECTION AG, priority 2017, dated 2025).)
